{"source": "paper PMC9848257", "about": "“Design and synthesis of novel rigid dibenzo[b,f]azepines through ring closure technique as promising anticancer candidates against leukaemia and acting as selective topoisomerase II inhibitors and DNA intercalators” (Journal of Enzyme Inhibition and Medicinal Chemistry, 2023)", "key": {"MCF-7": {"system": "MCF-7", "experiment": "NCI-60 one-dose screen, MCF-7", "type": "cell-based", "settings": "Homo sapiens, MCF7; MCF-7, breast cancer; single dose 10 μM; read-out: Growth inhibition %"}, "SW-620": {"system": "SW-620", "experiment": "NCI-60 one-dose screen, SW-620", "type": "cell-based", "settings": "Homo sapiens; SW-620, colon cancer; single dose 10 μM; read-out: Growth inhibition %"}, "SK-MEL-2": {"system": "SK-MEL-2", "experiment": "NCI-60 one-dose screen, SK-MEL-2", "type": "cell-based", "settings": "Homo sapiens; SK-MEL-2, melanoma; single dose 10 μM; read-out: Growth inhibition %"}, "TK-10": {"system": "TK-10", "experiment": "NCI-60 one-dose screen, TK-10", "type": "cell-based", "settings": "Homo sapiens; TK-10, renal cancer; single dose 10 μM; read-out: Growth inhibition %"}, "M14": {"system": "M14", "experiment": "NCI-60 one-dose screen, M14", "type": "cell-based", "settings": "Homo sapiens; M14, melanoma; single dose 10 μM; read-out: Growth inhibition %"}, "SF-539": {"system": "SF-539", "experiment": "NCI-60 one-dose screen, SF-539", "type": "cell-based", "settings": "Homo sapiens; SF-539, CNS cancer; single dose 10 μM; read-out: Growth inhibition %"}, "SK-OV-3": {"system": "SK-OV-3", "experiment": "NCI-60 one-dose screen, SK-OV-3", "type": "cell-based", "settings": "Homo sapiens; SK-OV-3, ovarian cancer; single dose 10 μM; read-out: Growth inhibition %"}, "PC-3": {"system": "PC-3", "experiment": "NCI-60 one-dose screen, PC-3", "type": "cell-based", "settings": "Homo sapiens; PC-3, prostate cancer; single dose 10 μM; read-out: Growth inhibition %"}, "OVCAR-5": {"system": "OVCAR-5", "experiment": "NCI-60 one-dose screen, OVCAR-5", "type": "cell-based", "settings": "Homo sapiens; OVCAR-5, ovarian cancer; single dose 10 μM; read-out: Growth inhibition %"}, "HCT-116": {"system": "HCT-116", "experiment": "NCI-60 one-dose screen, HCT-116", "type": "cell-based", "settings": "Homo sapiens; HCT-116, colon cancer; single dose 10 μM; read-out: Growth inhibition %"}, "RXF 393": {"system": "RXF 393", "experiment": "NCI-60 one-dose screen, RXF 393", "type": "cell-based", "settings": "Homo sapiens; RXF 393, renal cancer; single dose 10 μM; read-out: Growth inhibition %"}, "IGROV1": {"system": "IGROV1", "experiment": "NCI-60 one-dose screen, IGROV1", "type": "cell-based", "settings": "Homo sapiens, IGROV-1; IGROV1, ovarian cancer; single dose 10 μM; read-out: Growth inhibition %"}, "SK-MEL-28": {"system": "SK-MEL-28", "experiment": "NCI-60 one-dose screen, SK-MEL-28", "type": "cell-based", "settings": "Homo sapiens; SK-MEL-28, melanoma; single dose 10 μM; read-out: Growth inhibition %"}, "MDA-MB-468": {"system": "MDA-MB-468", "experiment": "NCI-60 one-dose screen, MDA-MB-468", "type": "cell-based", "settings": "Homo sapiens; MDA-MB-468, breast cancer; single dose 10 μM; read-out: Growth inhibition %"}, "NCI/ADR-RES": {"system": "NCI/ADR-RES", "experiment": "NCI-60 one-dose screen, NCI/ADR-RES", "type": "cell-based", "settings": "Homo sapiens, ovarian cancer, single dose 10 μM, read-out: Growth inhibition %"}, "UO-31": {"system": "UO-31", "experiment": "NCI-60 one-dose screen, UO-31", "type": "cell-based", "settings": "Homo sapiens; UO-31, renal cancer; single dose 10 μM; read-out: Growth inhibition %"}, "MDA-MB-231-ATCC": {"system": "MDA-MB-231-ATCC", "experiment": "NCI-60 one-dose screen, MDA-MB-231-ATCC", "type": "cell-based", "settings": "Homo sapiens, breast cancer, single dose 10 μM, read-out: Growth inhibition %"}, "K-562": {"system": "K-562", "experiment": "NCI-60 one-dose screen, K-562", "type": "cell-based", "settings": "Homo sapiens, K562; K-562, leukaemia; single dose 10 μM; read-out: Growth inhibition %"}, "NCI-H226": {"system": "NCI-H226", "experiment": "NCI-60 one-dose screen, NCI-H226", "type": "cell-based", "settings": "Homo sapiens; NCI-H226, non-small cell lung cancer; single dose 10 μM; read-out: Growth inhibition %"}, "SF-295": {"system": "SF-295", "experiment": "NCI-60 one-dose screen, SF-295", "type": "cell-based", "settings": "Homo sapiens; SF-295, CNS cancer; single dose 10 μM; read-out: Growth inhibition %"}, "topoisomerase II": {"biological_target": "topoisomerase II", "experiment": "Topoisomerase II inhibitory assay", "type": "biochemical", "settings": "in vitro; doxorubicin co-assayed as reference", "procedure": "Therefore, following the procedure reported by Patra et al., the topoisomerase II activity was evaluated."}, "MOLT-4": {"system": "MOLT-4", "experiment": "NCI-60 one-dose screen, MOLT-4", "type": "cell-based", "settings": "Homo sapiens; MOLT-4, leukaemia; single dose 10 μM; read-out: Growth inhibition %"}, "786-0": {"system": "786-0", "experiment": "NCI-60 one-dose screen, 786-0", "type": "cell-based", "settings": "Homo sapiens; 786-0, renal cancer; single dose 10 μM; read-out: Growth inhibition %"}, "NCI-H322M": {"system": "NCI-H322M", "experiment": "NCI-60 one-dose screen, NCI-H322M", "type": "cell-based", "settings": "Homo sapiens, non-small cell lung cancer, single dose 10 μM, read-out: Growth inhibition %"}}, "data": [{"compound": "C1=Cc2ccccc2N(c2nnc(Cc3ccccc3)o2)c2ccccc21", "note": "[Compound 5g, 2-Benzyl-5-(5H-dibenzo[b,f]azepin-5-yl)-1,3,4-oxadiazole]", "values": [{"measurement": "inhibition at 10 µM", "setting": "MCF-7", "result": "< 10", "unit": "%"}, {"measurement": "inhibition at 10 µM", "setting": "SW-620", "result": 19.7, "unit": "%"}, {"measurement": "inhibition at 10 µM", "setting": "SK-MEL-2", "result": "< 10", "unit": "%"}, {"measurement": "inhibition at 10 µM", "setting": "TK-10", "result": 21.1, "unit": "%"}, {"measurement": "inhibition at 10 µM", "setting": "M14", "result": "< 10", "unit": "%"}, {"measurement": "inhibition at 10 µM", "setting": "SF-539", "result": 11.5, "unit": "%"}, {"measurement": "melting point", "result": "189 to 191", "unit": "°C"}, {"measurement": "inhibition at 10 µM", "setting": "SK-OV-3", "result": "< 10", "unit": "%"}, {"measurement": "inhibition at 10 µM", "setting": "PC-3", "result": "< 10", "unit": "%"}, {"measurement": "inhibition at 10 µM", "setting": "OVCAR-5", "result": "< 10", "unit": "%"}, {"measurement": "inhibition at 10 µM", "setting": "HCT-116", "result": 31.4, "unit": "%"}, {"measurement": "inhibition at 10 µM", "setting": "RXF 393", "result": "< 10", "unit": "%"}, {"measurement": "inhibition at 10 µM", "setting": "IGROV1", "result": "< 10", "unit": "%"}, {"measurement": "inhibition at 10 µM", "setting": "SK-MEL-28", "result": "< 10", "unit": "%"}, {"measurement": "inhibition at 10 µM", "setting": "MDA-MB-468", "result": 15.6, "unit": "%"}, {"measurement": "inhibition at 10 µM", "setting": "NCI/ADR-RES", "result": "< 10", "unit": "%"}, {"measurement": "inhibition at 10 µM", "setting": "UO-31", "result": 30.7, "unit": "%"}, {"measurement": "inhibition at 10 µM", "setting": "MDA-MB-231-ATCC", "result": "< 10", "unit": "%"}, {"measurement": "inhibition at 10 µM", "setting": "K-562", "result": 14.9, "unit": "%"}, {"measurement": "inhibition at 10 µM", "setting": "NCI-H226", "result": "< 10", "unit": "%"}, {"measurement": "inhibition at 10 µM", "setting": "SF-295", "result": "< 10", "unit": "%"}, {"measurement": "IC50", "setting": "topoisomerase II", "result": 18.9, "unit": "µM"}, {"measurement": "inhibition at 10 µM", "setting": "MOLT-4", "result": 10.9, "unit": "%"}, {"measurement": "inhibition at 10 µM", "setting": "786-0", "result": 18.8, "unit": "%"}, {"measurement": "inhibition at 10 µM", "setting": "NCI-H322M", "result": "< 10", "unit": "%"}]}]}
